Consider one compound from US20100280987A1, “METHODS AND GENE EXPRESSION SIGNATURE FOR ASSESSING RAS PATHWAY ACTIVITY” (priority 2009, published 2010).

Series [1] relates to p53 loss of function and KRas mutant lung tumors (7450 KP-model). The series can be described thus: tumor progression in 7450 KP-model mice. It counts as in vivo. To be noted: 7450 KP mice, after 4 weeks of treatment (data not shown).
Series [2] can be described thus: blood concentration of AZD6244 post-dose in mice. In kind it is in vivo, CD-1 nude mice.
In series [3] the test system is RAS pathway signature. The series can be described thus: RAS pathway signature score in tumors after treatment in vivo. To be noted: 7450 KP-model mice, 150 mpk, three doses 10 hours apart, tumors 4 hours post last dose; 150 mg/kg. The protocol:
As a first step in the analysis of the RAS signatures, we assessed the coherency of the signatures across four cell line panels from lung, colon, breast, and lymphoid malignancies. The purpose of coherence analysis is to show the statistical significance of the difference between the “Up” and “Down” arms of the signature in a new dataset. Two correlation coefficients were calculated for all of the genes in both the Up and Down arms. First, the correlation between each gene in the Up arm and the average of all genes in the Up arm is calculated. Second, the anticorrelation between each gene in the Up arm and the average of all genes in the Down arm is calculated. This is repeated for genes in the Down arm. […] A Fisher exact test is calculated for correlation within and between arms of the signature to assess the significance of signature coherence in a new dataset. […] RAS pathway activity (or regulation) is summarized into a RAS signature score, which is calculated as: (mean expression of Up genes (Table 2a))—(mean expression of Down genes (Table 2b)). […]
The 7450 KP mice were treated with a small molecule MEK inhibitor, AZD6244 (Ohren et al., 2004, Nat. Struct. Mol. Biol. 11:119201197). […] RAS signature pathway signatures scores were calculated as previously described for each time point and plotted (FIG. 18).

Series [4] deals with MEK1 and MEK2. To be noted: purified enzyme, read-out: in vitro IC50 against purified enzyme; cited from earlier work.

Entries after “also recorded” stand apart in the source; their conditions may differ.

In general, IC50 refers to the concentration that inhibits the measured activity by half. Regarding `Cn1cnc2c(F)c(Nc3ccc(Br)cc3Cl)c(C(=O)NOCCO)cc21` [AZD6244], the “tumor progression compared vehicle” value in series [1] is “significantly halted tumor progression”. Further, the clearance post-dose entry in series [2] (CD-1 nude mice) was “cleared quickly”. Also, the half-life in vivo entry in series [2] (in vivo) was “short half-life”. In series [2] (mice (CD-1 nude mice), blood), the “blood concentration after the peak” value is “decreased rapidly”. The “RAS pathway signature score in vivo at 4 hours post-dose” value in series [3] is reported as “down regulated; also recorded: down-regulated”. In addition, in series [4], the IC50 is 10 to 14 nM.
